Test results reported in ChEMBL document CHEMBL4420074, “Small molecule inhibitors of Dusp6 and uses therefor” (2015).
Activity calls are given as the source filed them. No cut-off for these calls is given here.

Tests used:
[1] = biological target: T1, Dual specificity protein phosphatase (Danio rerio) (UniProt Q7T2L8); assay: Inhibition of Dusp6 in (Tg(Dusp6:d2EGFP)pt6) transgenic Zebrafish assessed as activation of FGF signaling at 20 uM treated at 24 hours post fertilization and measured after 6 hrs post dose by d2EGFP fluorescence based assay relative to BCI; set-up: scale not given: the % may be the effect or the level left
T1 sequence (whole entry): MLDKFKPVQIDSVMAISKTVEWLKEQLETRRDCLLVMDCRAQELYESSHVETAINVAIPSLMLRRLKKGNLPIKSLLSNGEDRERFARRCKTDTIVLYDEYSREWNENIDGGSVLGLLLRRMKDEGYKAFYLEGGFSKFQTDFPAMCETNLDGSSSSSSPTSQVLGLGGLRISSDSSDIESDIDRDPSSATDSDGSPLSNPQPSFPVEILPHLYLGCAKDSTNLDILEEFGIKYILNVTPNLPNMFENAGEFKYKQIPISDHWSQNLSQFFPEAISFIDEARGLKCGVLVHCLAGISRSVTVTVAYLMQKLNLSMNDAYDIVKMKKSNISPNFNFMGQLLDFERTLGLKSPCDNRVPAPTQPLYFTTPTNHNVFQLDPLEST

[2] = biological target: T1, Dual specificity protein phosphatase (Danio rerio); assay: Inhibition of Dusp6 in (Tg(Dusp6:d2EGFP)pt6) transgenic Zebrafish assessed as activation of FGF signaling at 20 uM by d2EGFP fluorescence based assay
[3] = biological target: T1, Dual specificity protein phosphatase (Danio rerio); assay: Inhibition of Dusp6 in (Tg(Dusp6:d2EGFP)pt6) transgenic Zebrafish assessed as activation of FGF signaling after 2 hrs by d2EGFP fluorescence based assay
[4] = biological target: T1, Dual specificity protein phosphatase (Danio rerio); assay: Inhibition of Dusp6 in (Tg(Dusp6:d2EGFP)pt6) transgenic Zebrafish assessed as activation of FGF signaling by measuring increase in ntl expression within notochord and tail bud at 6-somite stage at 10 to 20 uM dosed prior to gastrulation by whole mount in situ hybridization assay; assay type: organism-based
[5] = biological target: T1, Dual specificity protein phosphatase (Danio rerio); assay: Inhibition of Dusp6 in (Tg(Dusp6:d2EGFP)pt6) transgenic Zebrafish assessed as activation of FGF signaling by measuring increase in dusp6 expression at 10 to 20 uM dosed 1 to 10-somite stage by whole mount in situ hybridization assay; assay type: organism-based
[6] = biological target: T1, Dual specificity protein phosphatase (Danio rerio); assay: Inhibition of Dusp6 in (Tg(Dusp6:d2EGFP)pt6) transgenic Zebrafish assessed as activation of FGF signaling by measuring expansion of prospective mid-hindbrain boundary at 10 to 20 uM dosed 1 to 10-somite stage by whole mount in situ hybridization assay; assay type: organism-based
[7] = biological target: T1, Dual specificity protein phosphatase (Danio rerio); assay: Inhibition of Dusp6 in (Tg(Dusp6:d2EGFP)pt6) transgenic Zebrafish assessed as activation of FGF signaling by measuring increase in eng3 expression at 10 to 20 uM dosed 1 to 10-somite stage by whole mount in situ hybridization assay; assay type: organism-based
[8] = biological target: T1, Dual specificity protein phosphatase (Danio rerio); assay: Inhibition of Dusp6 in (Tg(Dusp6:d2EGFP)pt6) transgenic Zebrafish assessed as activation of FGF signaling by measuring expansion of rhombomere-4 and tail bud at 10 to 20 uM dosed 1 to 10-somite stage by whole mount in situ hybridization assay; assay type: organism-based
[9] = biological target: T1, Dual specificity protein phosphatase (Danio rerio); assay: Inhibition of Dusp6 in (Tg(Dusp6:d2EGFP)pt6) transgenic Zebrafish assessed as activation of FGF signaling by measuring increase in krox20 expression at 10 to 20 uM dosed 1 to 10-somite stage by whole mount in situ hybridization assay; assay type: organism-based
[10] = biological target: T1, Dual specificity protein phosphatase (Danio rerio); assay: Inhibition of Dusp6 in (Tg(Dusp6:d2EGFP)pt6) transgenic Zebrafish assessed as activation of FGF signaling by measuring increase in sef expression at 10 to 20 uM by semi-quantitative RT-PCR analysis
[11] = biological target: T1, Dual specificity protein phosphatase (Danio rerio); assay: Inhibition of Dusp6 in (Tg(Dusp6:d2EGFP)pt6) transgenic Zebrafish assessed as activation of FGF signaling by measuring increase in spry4 expression at 10 to 20 uM by semi-quantitative RT-PCR analysis
[12] = biological target: T1, Dual specificity protein phosphatase (Danio rerio); assay: Inhibition of Dusp6 in (Tg(Dusp6:d2EGFP)pt6) transgenic Zebrafish assessed as activation of FGF signaling at 5 uM by d2EGFP fluorescence based assay
[13] = biological target: T1, Dual specificity protein phosphatase (Danio rerio); assay: Inhibition of Dusp6 in (Tg(Dusp6:d2EGFP);ace mutant) transgenic Zebrafish assessed as activation of FGF signaling in mid-hindbrain boundary by d2EGFP fluorescence based assay
[14] = biological target: T1, Dual specificity protein phosphatase (Danio rerio); assay: Inhibition of Dusp6 in Zebrafish 1-cell stage embryos assessed as rescue of Zebrafish dusp6-mediated suppression of sef expression at 5 uM
Danio rerio [15] = species: Danio rerio; assay: Inhibition of exogenous Zebrafish spry4-mediated suppression of sef expression in Zebrafish 1-cell stage embryos at 5 uM; assay type: functional, organism-based
Danio rerio [16] = species: Danio rerio; assay: Inhibition of exogenous Zebrafish XFD-mediated suppression of sef expression in Zebrafish 1-cell stage embryos at 5 uM; assay type: functional, organism-based
[17] = biological target: T2, Dual specificity protein phosphatase (Danio rerio) (UniProt Q6PBT4); assay: Inhibition of Dusp5 in Zebrafish 1-cell stage embryos assessed as rescue of Zebrafish dusp5-mediated suppression of sef expression at 5 uM
T2 sequence (whole entry): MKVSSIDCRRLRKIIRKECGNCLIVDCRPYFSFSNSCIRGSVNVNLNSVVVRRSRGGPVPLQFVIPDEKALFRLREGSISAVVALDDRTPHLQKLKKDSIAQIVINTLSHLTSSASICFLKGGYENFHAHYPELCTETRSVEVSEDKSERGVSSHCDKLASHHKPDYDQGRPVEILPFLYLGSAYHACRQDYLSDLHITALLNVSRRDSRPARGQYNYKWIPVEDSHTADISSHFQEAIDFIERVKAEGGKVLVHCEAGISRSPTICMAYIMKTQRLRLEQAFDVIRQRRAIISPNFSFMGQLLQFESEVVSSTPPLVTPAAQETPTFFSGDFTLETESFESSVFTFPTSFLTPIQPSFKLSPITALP

[18] = biological target: T3, Dual specificity protein phosphatase 6 (Homo sapiens) (UniProt Q16828); assay: Inhibition of Myc-tagged human Dusp6 expressed in TPA-stimulated human HeLa cells assessed as suppression of Dusp6-induced reduction in ERK phosphorylation by immunostaining based assay; assay type: cell-based
T3 sequence (whole entry): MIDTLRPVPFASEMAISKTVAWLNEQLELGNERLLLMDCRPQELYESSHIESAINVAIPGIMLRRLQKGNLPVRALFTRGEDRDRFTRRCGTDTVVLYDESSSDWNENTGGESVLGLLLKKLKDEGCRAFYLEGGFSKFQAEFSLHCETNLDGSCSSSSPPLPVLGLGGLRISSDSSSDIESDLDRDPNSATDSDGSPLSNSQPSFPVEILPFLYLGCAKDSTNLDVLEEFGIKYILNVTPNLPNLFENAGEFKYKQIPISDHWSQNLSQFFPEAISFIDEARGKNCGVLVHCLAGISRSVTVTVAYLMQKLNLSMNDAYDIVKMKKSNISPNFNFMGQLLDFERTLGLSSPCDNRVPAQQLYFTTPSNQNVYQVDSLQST

[19] = biological target: T3, Dual specificity protein phosphatase 6 (Homo sapiens); assay: Inhibition of Myc-tagged human Dusp6 expressed in TPA-stimulated human HeLa cells assessed as suppression of Dusp6-induced reduction in ERK phosphorylation at 0.5 to 2 uM by immunostaining based assay; assay type: cell-based
[20] = biological target: T4, Dual specificity protein phosphatase 1 (Homo sapiens) (UniProt P28562); assay: Inhibition of Myc-tagged human Dusp1 expressed in TPA-stimulated human HeLa cells assessed as suppression of […] reduction in ERK phosphorylation at 0.5 to 2 uM by immunostaining based assay; assay type: cell-based
T4 sequence (whole entry): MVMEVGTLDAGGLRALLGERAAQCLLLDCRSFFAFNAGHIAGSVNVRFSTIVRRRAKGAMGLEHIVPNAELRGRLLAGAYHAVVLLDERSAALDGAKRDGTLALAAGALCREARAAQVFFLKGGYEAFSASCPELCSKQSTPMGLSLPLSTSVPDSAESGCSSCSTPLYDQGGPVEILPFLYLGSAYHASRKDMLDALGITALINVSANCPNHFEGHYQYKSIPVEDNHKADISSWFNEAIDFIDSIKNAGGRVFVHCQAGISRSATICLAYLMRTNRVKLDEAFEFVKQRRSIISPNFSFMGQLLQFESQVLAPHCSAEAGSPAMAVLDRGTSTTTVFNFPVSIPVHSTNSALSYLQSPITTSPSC

[21] = biological target: T3, Dual specificity protein phosphatase 6 (Homo sapiens); assay: Inhibition of recombinant His-tagged Dusp6 (unknown origin) assessed as suppression of […] dephosphorylation at 100 uM incubated for 60 mins by immunoblotting
[22] = biological target: T3, Dual specificity protein phosphatase 6 (Homo sapiens); assay: Inhibition of recombinant His-tagged Dusp6 (unknown origin) assessed as reduction in basal Dusp6 activity at 100 uM using OMFP substrate by fluorescence based assay
[23] = biological target: T1, Dual specificity protein phosphatase (Danio rerio); assay: Inhibition of Dusp6 in Zebrafish assessed as assessed as activation of FGF signaling by measuring reduction in ETSRP expression relative to control
Danio rerio [24] = species: Danio rerio; assay: Induction of cardiac tissue expansion in Zebrafish embryos exposed to compound at larval stage followed by compound washout in next day and further incubation until embryos reached 56 hpf; assay type: functional, organism-based
Danio rerio [25] = species: Danio rerio; assay: Induction of cardiac tissue expansion in Zebrafish embryos exposed to compound at 1 and 8-somite stages followed by compound washout in next day and further incubation until embryos reached 56 hpf; assay type: functional, organism-based
Danio rerio [26] = species: Danio rerio; assay: Induction of cardiac tissue expansion in Zebrafish embryos exposed to compound at post 1 and 8-somite stages followed by compound washout in next day and further incubation until embryos reached 56 hpf; assay type: functional, organism-based
Danio rerio [27] = species: Danio rerio; assay: (§1) Induction of cardiac tissue expansion in Zebrafish embryos assessed as induction of heart enlargement by measuring increase in VHMC expression exposed to compound at larval stage followed by compound washout in next day and further incubation until embryos reached 56 hpf by in situ hybridization assay; assay type: functional, organism-based
Danio rerio [28] = species: Danio rerio; assay: as §1, with “cmlc2” for “VHMC”; assay type: functional, organism-based
Danio rerio [29] = species: Danio rerio; assay: Induction of cardiac tissue expansion in ventricular tissue of Zebrafish embryos exposed to compound at larval stage followed by compound washout in next day and further incubation until embryos reached 56 hpf; assay type: functional, organism-based
[30] = Toxicity in (Tg(Dusp6:d2EGFP)pt6) transgenic Zebrafish assessed as induction of tail necrosis at >10 uM incubated for 24 hrs; set-up: species or system Danio rerio; details: in vivo
[31] = Toxicity in (Tg(Dusp6:d2EGFP)pt6) transgenic Zebrafish assessed as induction of embryo death at >10 uM incubated for 24 hrs; set-up: species or system Danio rerio; details: in vivo
[32] = Toxicity in (Tg(Dusp6:d2EGFP)pt6) transgenic Zebrafish assessed as induction of embryo death at 20 uM incubated for 24 hrs; set-up: species or system Danio rerio; details: in vivo, other: incubation
[33] = Toxicity in (Tg(Dusp6:d2EGFP)pt6) transgenic Zebrafish assessed as induction of embryo death at 40 uM incubated for 24 hrs; set-up: species or system Danio rerio; details: in vivo
[34] = Toxicity in (Tg(Dusp6:d2EGFP)pt6) transgenic Zebrafish assessed as induction of embryo death at 10 uM incubated for 24 hrs; set-up: species or system Danio rerio; details: in vivo, other: incubation
[35] = biological target: Dual specificity protein phosphatase 6 (Homo sapiens) (UniProt Q16828); assay: Inhibition of recombinant His-tagged Dusp6 (unknown origin) assessed as suppression of […] dephosphorylation at 1 mM incubated for 60 mins by immunoblotting

O=C1/C(=C/c2ccccc2)C(NC2CCCCC2)c2ccccc21 (stereo in doubt; form 2)
Activity [1]: 82%

O=C1/C(=C/c2ccccc2)Cc2ccccc21
inhibition [2]: inactive

O=C1/C(=C/c2ccccc2)C(NC2CCCCC2)c2ccccc21 (stereo in doubt; form 1) [listing 1 of 2 here]
inhibition [3]: Dose-dependent effect
inhibition [4]: Active
inhibition [5]: Active
inhibition [6]: Active
inhibition [7]: Active
inhibition [8]: Active
inhibition [9]: Active
inhibition [10]: Active
inhibition [11]: Active
inhibition [12]: Active
inhibition [13]: inactive
inhibition [14]: Active
inhibition (Danio rerio [15]): inactive
inhibition (Danio rerio [16]): inactive
inhibition [17]: inactive
inhibition [18]: Active
inhibition [19]: Active
inhibition [20]: Active
inhibition [21]: Active
inhibition [22]: inactive
inhibition [23]: Active
Activity (Danio rerio [24]): Dose-dependent effect
Activity (Danio rerio [25]): Active
Activity (Danio rerio [26]): inactive
Activity (Danio rerio [27]): Active
Activity (Danio rerio [28]): Active
Activity (Danio rerio [29]): Active
Activity [1]: 100%

O=C1/C(=C/c2ccccc2)C(NC2CCCCC2)c2ccccc21 (stereo in doubt; form 1) [listing 2 of 2 here]
Activity [30]: Toxic
Activity [31]: Toxic
mortality at 24 h, 20 µM [32]: 100%

O=C1/C(=C/c2ccccc2)C(NC2CCCCC2)c2cc(Br)ccc21 (stereo not drawn)
Activity [33]: Non-Toxic

O=C1CC(NC2CCCCC2)c2ccccc21 (stereo not drawn)
inhibition [2]: inactive
inhibition [19]: inactive
inhibition [20]: inactive
inhibition [21]: inactive

O=C1/C(=C/c2ccccc2)C(N2CCOCC2)c2ccccc21 (stereo not drawn)
mortality at 24 h, 10 µM [34]: 100%

N#Cc1ccc2c(c1)C(NC1CCCCC1)/C(=C\c1ccccc1)C2=O (stereo not drawn)
Activity [1]: inactive

O=C1N[C@H]2[C@H](CS[C@H]2CCCCC(=O)N[C@H]2CC[C@H](NC3/C(=C\c4ccccc4)C(=O)c4ccccc43)CC2)N1 (stereo partly drawn)
Activity [1]: inactive

CC(C)(C)OC(=O)N[C@H]1CC[C@H](NC2/C(=C\c3ccccc3)C(=O)c3ccccc32)CC1 (stereo partly drawn)
Activity [1]: inactive

SODIUM ORTHOVANAD
inhibition [35]: Active
